Reference: patent US20250230193A1, “CYCLIC COMPOUND HAVING SELECTIVE KRAS INHIBITORY EFFECT ON HRAS AND NRAS” (CHUGAI SEIYAKU KABUSHIKI KAISHA, priority 2022, published 2025)
Where a SMILES comes first, the peptide text is derived from it. Bridges are numbered along the chain shown (N, C = ends). [ ]: non-standard residue; d: D form. hPhe(3-Cl-4-CF3) = N[C@@H](CCc1ccc(C(F)(F)F)c(Cl)c1)C(=O)O; NPrPhe(4-CF3) = CCCN[C@@H](Cc1ccc(C(F)(F)F)cc1)C(=O)O; NMeGly(cPent) = CN[C@H](C(=O)O)C1CCCC1; Hyp = O=C(O)[C@@H]1C[C@@H](O)CN1; NMeD = CN[C@@H](CC(=O)O)C(=O)O; NMeL = CN[C@@H](CC(C)C)C(=O)O; Ac5c = NC1(C(=O)O)CCCC1; NEtG = CCNCC(=O)O; Sar = CNCC(=O)O

Key:
[1] = target: GDP-bound NRAS wild-type protein (Homo sapiens, UniProt P01111); test: Binding to NRAS by surface plasmon resonance (SPR), Single Cycle Kinetics
GDP-bound NRAS wild-type protein, sequence (P01111 whole entry): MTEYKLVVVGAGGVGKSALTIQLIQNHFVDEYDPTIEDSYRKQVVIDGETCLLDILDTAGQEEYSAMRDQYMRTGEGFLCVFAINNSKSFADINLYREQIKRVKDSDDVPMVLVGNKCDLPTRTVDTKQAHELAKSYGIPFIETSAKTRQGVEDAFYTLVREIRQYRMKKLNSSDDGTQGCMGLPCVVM

[2] = target: GDP-bound HRAS wild-type protein (Homo sapiens, UniProt P01112); test: Binding to HRAS by surface plasmon resonance (SPR), Single Cycle Kinetics
GDP-bound HRAS wild-type protein, sequence (P01112 whole entry): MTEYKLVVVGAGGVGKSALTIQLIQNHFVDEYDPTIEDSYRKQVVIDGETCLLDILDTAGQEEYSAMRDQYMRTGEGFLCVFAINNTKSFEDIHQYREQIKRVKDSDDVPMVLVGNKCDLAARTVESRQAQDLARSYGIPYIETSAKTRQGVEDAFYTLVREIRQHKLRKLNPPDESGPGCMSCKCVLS

[3] = KD ratio, GDP-bound NRAS wild-type vs GDP-bound KRAS wild-type, SPR
[4] = KD ratio, GDP-bound HRAS wild-type vs GDP-bound KRAS wild-type, SPR

| SMILES | NRAS/KRAS (ratio of KD value with respect to NRAS to KD value with respect to KRAS) [1, 3] | HRAS/KRAS (ratio of KD value with respect to HRAS to KD value with respect to KRAS) [2, 4] | further results |
| --- | --- | --- | --- |
| CCCN1C(=O)CN(C)C(=O)CN(CC)C(=O)[C@H]([C@@H](C)CC)NC(=O)[C@H](CC(C)C)N(C)C(=O)C[C@@H](C(=O)N(C)C)N(C)C(=O)[C@H](C2CCCC2)N(C)C(=O)C2(CCCC2)NC(=O)[C@@H]2C[C@@H](OCC)CN2C(=O)[C@H](CCc2ccc(C(F)(F)F)c(Cl)c2)NC(=O)CN(C)C(=O)[C@@H]1Cc1ccc(C(F)(F)F)cc1 [PP0427] ([NMeL]I[NEtG][Sar][NPrPhe(4-CF3)][Sar][hPhe(3-Cl-4-CF3)][Hyp](Et)[Ac5c][NMeGly(cPent)][NMeD]-NMe2; lactam N-11) | – | – | NRAS/KRAS (ratio of KD value with respect to GDP-bound NRAS wild-type protein to KD value with respect to KRAS) ([1]; SPR): B (a compound having 3 or more and less than 10 is denoted as B); HRAS/KRAS (ratio of KD value with respect to GDP-bound HRAS wild-type protein to KD value with respect to KRAS) ([2]; SPR): C (A compound having a KD ratio of 0.1 or more and less than 3 is denoted as C) |
| CC[C@H](C)[C@@H]1NC(=O)[C@H](CC(F)(F)F)N(C)C(=O)C[C@@H](C(=O)N(C)C)N(C)C(=O)[C@H](C2CCCC2)N(C)C(=O)C2(CC(C)(C)C2)NC(=O)[C@@H]2C[C@H](C)CN2C(=O)[C@H](CCc2cc(F)c(C(F)(F)F)c(F)c2)NC(=O)CN(C)C(=O)[C@H](Cc2ccc(C(F)(F)F)cc2)N2CC/C=C\C[C@@H](C2=O)N(C)C(=O)CN(C)C1=O [PP1682] | – | – | NRAS/KRAS (ratio of KD value for NRAS to KD value for KRAS) [1, 3]: AA (a compound having 20 or more is denoted as AA); HRAS/KRAS (ratio of KD value for HRAS to KD value for KRAS) [2, 4]: A (a compound having 10 or more and less than 20 is denoted as A) |
| CC[C@H](C)[C@@H]1NC(=O)[C@H](CC)N(C)C(=O)C[C@@H](C(=O)N(C)C)N(C)C(=O)[C@H](C2CCCC2)N(C)C(=O)C2(CCC2)NC(=O)[C@H](CC2CCCCC2)N(C)C(=O)[C@H](CCc2cc(F)c(C(F)(F)F)c(F)c2)NC(=O)CN(C)C(=O)[C@H](Cc2ccc(C(F)(F)F)cc2)N2CC/C=C\C[C@@H](C2=O)N(C)C(=O)CN(C)C1=O [PP1149] | A (a compound having 10 or more and less than 20 is denoted as A) | A (a compound having 10 or more and less than 20 is denoted as A) | – |
| CCO[C@@H]1C[C@H]2C(=O)NC3(CCC3)C(=O)N(C)[C@@H](C3CCCC3)C(=O)N(C)[C@H](C(=O)N(C)C)CC(=O)N(C)[C@@H](C)C(=O)N[C@@H]([C@@H](C)CC)C(=O)N(C)CC(=O)N(C)[C@H]3CCCCCN(C3=O)[C@@H](Cc3ccc(F)cc3)C(=O)N(C)CC(=O)N[C@@H](CCc3cc(F)c(C(F)(F)F)c(F)c3)C(=O)N2C1 [PP1189] | B (a compound having 3 or more and less than 10 is denoted as B) | B (a compound having 3 or more and less than 10 is denoted as B) | – |
| CC[C@H](C)[C@@H]1NC(=O)[C@H](CC2CC2)N(C)C(=O)C[C@@H](C(=O)N(C)CC)N(C)C(=O)[C@H](C2CCCC2)N(C)C(=O)C2(CC(C)(C)C2)NC(=O)[C@@H]2C[C@@H](F)CN2C(=O)[C@H](CCc2cc(F)c(C(F)(F)F)c(F)c2)NC(=O)CN(C)C(=O)[C@H](Cc2ccc(C)cc2)N2CC/C=C\C[C@@H](C2=O)N(C)C(=O)CN(C)C1=O [PP2802] | – | – | NRAS/KRAS (ratio of KD value with respect to GDP-bound NRAS wild-type protein to KD value with respect to KRAS) ([1]; class symbols): AA (a compound having 20 or more is denoted as AA); HRAS/KRAS (ratio of KD value with respect to GDP-bound HRAS wild-type protein to KD value with respect to KRAS) ([2]; class symbols): A (a compound having 10 or more and less than 20 is denoted as A) |
| CCO[C@@H]1C[C@H]2C(=O)NC3(CCC3)C(=O)N(C)[C@@H](C3CCCC3)C(=O)N(C)[C@H](C(=O)N3CCOCC3)CC(=O)N(C)[C@@H](CCOC)C(=O)N[C@@H]([C@@H](C)CC)C(=O)N(C)CC(=O)N(C)[C@H]3CCCCCN(C3=O)[C@@H](Cc3ccc(F)cc3)C(=O)N(C)CC(=O)N[C@@H](CCc3cc(F)c(C(F)(F)F)c(F)c3)C(=O)N2C1 [PP1180] | B (a compound having 3 or more and less than 10 is denoted as B) | B (a compound having 3 or more and less than 10 is denoted as B) | – |
| CCO[C@@H]1C[C@H]2C(=O)NC3(CCC3)C(=O)N(C)[C@@H](C3CCCC3)C(=O)N(CC)[C@H](C(=O)N3CCOCC3)CC(=O)N(C)[C@@H](COC)C(=O)N[C@@H]([C@@H](C)CC)C(=O)N(C)CC(=O)N(C)[C@H]3CCCCCN(C3=O)[C@@H](Cc3ccc(C(F)(F)F)cc3)C(=O)N(C)CC(=O)N[C@@H](CCc3cc(F)c(C(F)(F)F)c(F)c3)C(=O)N2C1 [PP0946] | A (a compound having 10 or more and less than 20 is denoted as A) | B (a compound having 3 or more and less than 10 is denoted as B) | – |
